# Experimental data as given in patent US20250129070A1, “BIFUNCTIONAL ANDROGEN RECEPTOR COMPOUNDS” (priority 2023, published 2025).
# Experiments:
# AR / CBP ternary complex = assay: Ternary complex formation assay (sandwich ELISA, AR capture / CBP detection) in VCaP cell lysates; format: cell-based; settings: 1.5 hours treatment, sandwich ELISA (AR capture, CBP or p300 detection)
# In short: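 VCaP cells (50K/well, 5% charcoal-stripped FBS, ≥3 days) treated with bifunctional compound for 1.5 h, then lysed 30 min at 4 °C. AR captured on anti-AR (AR 441) plates; bound CBP or p300 detected by rabbit mAb plus HRP secondary. QuantaRed chemifluorescence read at ex 570/em 585, immediately and at 5 and 15 min.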
# VCaP cells = assay: VCaP growth inhibition assay; format: cell-based; settings: 30 pM R1881, 9 days, CTG
# In short: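 VCaP cells in phenol red-free DMEM/5% CSS, pre-incubated 72 h, then stimulated with R1881 (final 30 pM) and treated with 1:5 serial dilutions (final 100 nM to 10 fM) for 9 days at 37 °C. Viability by CellTiter-Glo luminescence; IC50 from 4-parameter logistic fit of RLU vs concentration.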
Structure (SMILES),EC50 (AR / CBP ternary complex) [nM],IC50 (VCaP cells) [nM]
"CC(=O)N1CCc2c(c(-c3cccc4cc(-c5cnn(C6CCN(C7CCN(c8ncc(C(=O)NC9C(C)(C)C(Oc%10ccc(C#N)c(Cl)c%10)C9(C)C)cn8)CC7)C6)c5)ncc34)nn2C2CCOCC2)C1 (stereo not drawn) [Compound 222, 2-[4-[3-[4-[8-(5-acetyl-1-tetrahydropyran-4-yl-6,7-dihydro-4H-pyrazolo[4,3-c]pyridin-3-yl)-3-isoquinolyl]pyrazol-1-yl]pyrrolidin-1-yl]-1-piperidyl]-N-[3-(3-chloro-4-cyano-phenoxy)-2,2,4,4-tetramethyl-cyclobutyl]pyrimidine-5-carboxamide]",< 1,0.1 to 1
"COc1cc(OC2C(C)(C)C(NC(=O)c3ccc(N4CCC(n5ncc6c5CCC(n5nc(N7CCCc8cc(-c9cnn(C)c9)c(C(F)F)cc87)c7c5CCN(C(C)=O)C7)C6)CC4)cc3)C2(C)C)ccc1C#N (stereo not drawn) [Compound 265, 4-[4-[5-[5-acetyl-3-[7-(difluoromethyl)-6-(1-methylpyrazol-4-yl)-3,4-dihydro-2H-quinolin-1-yl]-6,7-dihydro-4H-pyrazolo[4,3-c]pyridin-1-yl]-4,5,6,7-tetrahydroindazol-1-yl]-1-piperidyl]-N-[3-(4-cyano-3-methoxy-phenoxy)-2,2,4,4-tetramethyl-cyclobutyl]benzamide]",< 1,≤ 0.1
"CC(=O)N1CCc2c(c(N3CCCc4cc(-c5cnn(C)c5)c(C(F)F)cc43)nn2C2CCC(CN3CCN(c4ncc(C(=O)NC5C(C)(C)C(Oc6ccc(C#N)c(Cl)c6)C5(C)C)cn4)CC3)CC2)C1 (stereo not drawn) [Compound 318, 2-[4-[[4-[5-acetyl-3-[7-(difluoromethyl)-6-(1-methylpyrazol-4-yl)-3,4-dihydro-2H-quinolin-1-yl]-6,7-dihydro-4H-pyrazolo[4,3-c]pyridin-1-yl]cyclohexyl]methyl]piperazin-1-yl]-N-[3-(3-chloro-4-cyano-phenoxy)-2,2,4,4-tetramethyl-cyclobutyl]pyrimidine-5-carboxamide]",< 1,≤ 0.1
"CC(=O)N1CCc2c(c(N3CCCc4cc(-c5cnn(C)c5)c(C)cc43)nn2C2CCN(CC3CCN(c4ncc(C(=O)NC5C(C)(C)C(Oc6ccc(C#N)c(Cl)c6)C5(C)C)cn4)CC3)CC2)C1 (stereo not drawn) [Compound 26, 2-[4-[[4-[5-acetyl-3-[7-methyl-6-(1-methylpyrazol-4-yl)-3,4-dihydro-2H-quinolin-1-yl]-6,7-dihydro-4H-pyrazolo[4,3-c]pyridin-1-yl]-1-piperidyl]methyl]-1-piperidyl]-N-[3-(3-chloro-4-cyano-phenoxy)-2,2,4,4-tetramethyl-cyclobutyl]pyrimidine-5-carboxamide]",< 1,0.1 to 1
"CC(=O)N1CCc2c(c(N3CCCc4cc(-c5ccn(C)n5)c(C(F)F)cc43)nn2C2CCN(CC3CCC(n4cc(C(=O)NC5C(C)(C)C(Oc6ccc(C#N)c(Cl)c6)C5(C)C)cn4)CC3)CC2)C1 (stereo not drawn) [Compound 241, 1-[4-[[4-[5-acetyl-3-[7-(difluoromethyl)-6-(1-methylpyrazol-3-yl)-3,4-dihydro-2H-quinolin-1-yl]-6,7-dihydro-4H-pyrazolo[4,3-c]pyridin-1-yl]-1-piperidyl]methyl]cyclohexyl]-N-[3-(3-chloro-4-cyano-phenoxy)-2,2,4,4-tetramethyl-cyclobutyl]pyrazole-4-carboxamide]",1 to 10,0.1 to 1
"CC(=O)N1CCc2c(c(N3CCCc4cc(-c5cnn(C)c5)c(C(F)F)cc43)nn2C2CCN([C@H]3CCN(c4ncc(C(=O)NC5C(C)(C)C(Oc6ccc(C#N)c(Cl)c6)C5(C)C)cn4)C3)CC2)C1 (stereo partly drawn) [Compound 334, 2-[(3S)-3-[4-[5-acetyl-3-[7-(difluoromethyl)-6-(1-methylpyrazol-4-yl)-3,4-dihydro-2H-quinolin-1-yl]-6,7-dihydro-4H-pyrazolo[4,3-c]pyridin-1-yl]-1-piperidyl]pyrrolidin-1-yl]-N-[3-(3-chloro-4-cyano-phenoxy)-2,2,4,4-tetramethyl-cyclobutyl]pyrimidine-5-carboxamide]",< 1,0.1 to 1
"C[C@@H]1CC(=O)Nc2cccc(-c3ccc4c(c3)c(-c3cnn(C)c3)nn4CCN(C)c3ncc(C(=O)NC4C(C)(C)C(Oc5ccc(C#N)c(Cl)c5)C4(C)C)cn3)c2N1 (stereo partly drawn) [Compound 48, N-[3-(3-chloro-4-cyano-phenoxy)-2,2,4,4-tetramethyl-cyclobutyl]-2-[methyl-[2-[5-[(4R)-4-methyl-2-oxo-1,3,4,5-tetrahydro-1,5-benzodiazepin-6-yl]-3-(1-methylpyrazol-4-yl)indazol-1-yl]ethyl]amino]pyrimidine-5-carboxamide]",> 100,1 to 100
"CC(=O)N1CCc2c(c(N3CCCc4cc(-c5cnn(C)c5)ccc43)nn2C2CCN(CC3CCN(c4ncc(C(=O)NC5C(C)(C)C(Oc6ccc(C#N)c(Cl)c6)C5(C)C)cn4)CC3)CC2)C1 (stereo not drawn) [Compound 24, 2-[4-[[4-[5-acetyl-3-[6-(1-methylpyrazol-4-yl)-3,4-dihydro-2H-quinolin-1-yl]-6,7-dihydro-4H-pyrazolo[4,3-c]pyridin-1-yl]-1-piperidyl]methyl]-1-piperidyl]-N-[3-(3-chloro-4-cyano-phenoxy)-2,2,4,4-tetramethyl-cyclobutyl]pyrimidine-5-carboxamide]",< 1,0.1 to 1
"CC(=O)N1CCc2c(c(N3CCCc4cc(-c5cnn(C)c5)c(C(F)F)cc43)nn2C2CCN(C3CC4(C3)CN(c3ncc(C(=O)NC5C(C)(C)C(Oc6ccc(C#N)c(Cl)c6)C5(C)C)cn3)C4)CC2)C1 (stereo not drawn) [Compound 348, 2-[6-[4-[5-acetyl-3-[7-(difluoromethyl)-6-(1-methylpyrazol-4-yl)-3,4-dihydro-2H-quinolin-1-yl]-6,7-dihydro-4H-pyrazolo[4,3-c]pyridin-1-yl]-1-piperidyl]-2-azaspiro [3.3]heptan-2-yl]-N-[3-(3-chloro-4-cyano-phenoxy)-2,2,4,4-tetramethyl-cyclobutyl]pyrimidine-5-carboxamide]",< 1,≤ 0.1
"CC(=O)N1CCc2c(c(N3CCCc4cc(-c5cnn(C)c5)c(C)cc43)nn2C2CCN(C3CCC4(CC3)CN(c3ncc(C(=O)NC5C(C)(C)C(Oc6ccc(C#N)c(C)c6C)C5(C)C)cn3)C4)CC2)C1 (stereo not drawn) [Compound 472, 2-[7-[4-[5-acetyl-3-[7-methyl-6-(1-methylpyrazol-4-yl)-3,4-dihydro-2H-quinolin-1-yl]-6,7-dihydro-4H-pyrazolo[4,3-c]pyridin-1-yl]-1-piperidyl]-2-azaspiro[3.5]nonan-2-yl]-N-[3-(4-cyano-2,3-dimethyl-phenoxy)-2,2,4,4-tetramethyl-cyclobutyl]pyrimidine-5-carboxamide]",< 1,0.1 to 1
"COc1cc(OC2C(C)(C)C(NC(=O)c3ccc(N4CCN(C5CN(c6ccc(-c7cc8cccc(-c9nn(C%10CCOCC%10)c%10c9CN(C(C)=O)CC%10)c8cn7)cn6)C5)CC4)cc3)C2(C)C)ccc1C#N (stereo not drawn) [Compound 322, 4-[4-[1-[5-[8-(5-acetyl-1-tetrahydropyran-4-yl-6,7-dihydro-4H-pyrazolo[4,3-c]pyridin-3-yl)-3-isoquinolyl]-2-pyridyl]azetidin-3-yl]piperazin-1-yl]-N-[3-(4-cyano-3-methoxy-phenoxy)-2,2,4,4-tetramethyl-cyclobutyl]benzamide]",< 1,≤ 0.1
"CC(=O)N1CCc2c(c(N3CCCc4cc(C#N)ccc43)nn2C2CC3(C2)CN(C(=O)C2CC4(C2)CN(c2ncc(C(=O)NC5C(C)(C)C(Oc6ccc(C#N)c(Cl)c6)C5(C)C)cn2)C4)C3)C1 (stereo not drawn) [Compound 220, 2-[6-[6-[5-acetyl-3-(6-cyano-3,4-dihydro-2H-quinolin-1-yl)-6,7-dihydro-4H-pyrazolo[4,3-c]pyridin-1-yl]-2-azaspiro[3.3]heptane-2-carbonyl]-2-azaspiro[3.3]heptan-2-yl]-N-[3-(3-chloro-4-cyano-phenoxy)-2,2,4,4-tetramethyl-cyclobutyl]pyrimidine-5-carboxamide]",< 1,1 to 100
"CC(=O)N1CCc2c(c(N3CCCc4cc(-c5cnn(C)c5)c(C(F)F)cc43)nn2C2CCC(N(C)C3CCN(c4ncc(C(=O)NC5C(C)(C)C(Oc6ccc(C#N)c(Cl)c6)C5(C)C)cn4)CC3)CC2)C1 (stereo not drawn) [Compound 284, 2-[4-[[4-[5-acetyl-3-[7-(difluoromethyl)-6-(1-methylpyrazol-4-yl)-3,4-dihydro-2H-quinolin-1-yl]-6,7-dihydro-4H-pyrazolo[4,3-c]pyridin-1-yl]cyclohexyl]-methyl-amino]-1-piperidyl]-N-[3-(3-chloro-4-cyano-phenoxy)-2,2,4,4-tetramethyl-cyclobutyl]pyrimidine-5-carboxamide]",< 1,≤ 0.1
"Cn1c(=O)sc2ccc(N3CCCc4cc(-c5ccc(CCC6CCN(c7ncc(C(=O)NC8C(C)(C)C(Oc9ccc(C#N)c(Cl)c9)C8(C)C)cn7)CC6)nc5)ncc43)cc21 (stereo not drawn) [Compound 237, N-[3-(3-chloro-4-cyano-phenoxy)-2,2,4,4-tetramethyl-cyclobutyl]-2-[4-[2-[5-[1-(3-methyl-2-oxo-1,3-benzothiazol-5-yl)-3,4-dihydro-2H-1,7-naphthyridin-6-yl]-2-pyridyl]ethyl]-1-piperidyl]pyrimidine-5-carboxamide]",< 1,1 to 100
"COc1cc(OC2C(C)(C)C(NC(=O)c3ccc(N4CC(N5CCC6(CCC(n7nc(N8CCCc9cc(-c%10cnn(C)c%10)c(C(F)F)cc98)c8c7CCN(C(C)=O)C8)CC6)C5)C4)cc3)C2(C)C)ccc1C#N (stereo not drawn) [Compound 401, 4-[3-[8-[5-acetyl-3-[7-(difluoromethyl)-6-(1-methylpyrazol-4-yl)-3,4-dihydro-2H-quinolin-1-yl]-6,7-dihydro-4H-pyrazolo[4,3-c]pyridin-1-yl]-2-azaspiro [4.5]decan-2-yl]azetidin-1-yl]-N-[3-(4-cyano-3-methoxy-phenoxy)-2,2,4,4-tetramethyl-cyclobutyl]benzamide]",< 1,0.1 to 1
